The test has as its system ST2 cells, murine bone marrow-derived stromal cells. Briefly: Osteoblast differentiation test (ALP activity). The format is cell-based. The conditions noted are these: Mus musculus, ST-2, 96 h, at 0.1 μg/mL, control group (0.1% DMSO) = 100%, four days of culturing, read-out: alkaline phosphatase activity. How it is done:
ST2 cells, murine bone marrow-derived stromal cells, (obtained from RIKEN) were used.
In this test, α-MEM media (obtained from GIBCO BRL Cat. No. 10370-021) containing 10% (v/v) of inactivated calf serum (obtained from Hyclone Laboratories, Inc.) and 1% (v/v) of Penicillin-Streptomycin Liquid (obtained from GIBCO BRL Cat. No. 15140-122) (hereinbelow, abbreviated as 10%-FBS-αMEM) were used. In this test, all culturing was performed in a CO2 incubator (37° C., 95% humidity, 5% CO2).
The aforementioned cells were detached with 2 mL of a 0.25% trypsin solution (obtained from GIBCO BRL Cat. No. 15050-065) and dispersed in 10 mL of 10%-FBS-αMEM. Subsequently, the cells were collected by centrifugation (25° C., 800 rpm, five minutes). Then, a cell suspension containing 40000 of the cells/mL of 10%-FBS-αMEM was prepared. The cell suspension was then dispensed into 96-well plates (the product of Falcon), 100 μL per well, at a density of 4000 cells/well, followed by culturing for 24 hours. To the wells, except for the below-described well containing a control group, the compound was dispensed at final concentrations of 0.01, 0.03, 0.1, and 0.3 μg/ml. To the well of a control group, DMSO was dispensed at a final concentration of 0.1% (v/v). After four days of culturing, the activity of alkaline phosphatase (ALP) was measured in each group.
The measurement of ALP activity was performed as follows. That is, the medium in each well of the culture plates was completely removed. Each well was then washed by dispensing 100 μL of Dulbecco's phosphate buffer (obtained from GIBCO BRL Cat. No. 14190-144) and then removing it. A cell lysate solution containing 10 mM MgCl2 and 2% (v/v) TritonX-100 (Sigma) was prepared and dispensed at 50 μL/well, followed by stirring at room temperature for five minutes. An ALP substrate solution containing 50 mM diethanolamine (Wako Pure Chemical Industries, Ltd., Cat. No. 099-03112) and 20 mM p-nitrophenyl phosphate (Wako Pure Chemical Industries, Ltd., Cat. No. 147-02343) was prepared and dispensed at 50 μL/well, and the plates were left to stand at room temperature for 10 minutes. Subsequently, absorbance was measured by a microplate reader (Bio-Rad Laboratories, Inc.). Setting the measurement value of the control group of each plate at 100%, alkaline phosphatase activity (increase (%)) in the test compound-addition group was calculated, which was assessed as the degree of osteoblast differentiation.

Where a name gives a salt, the structure may show the parent alone.

Turning to `Cc1ccc2ncc(-c3ccc(OCCOC4CCOCC4)cc3)n2c1` [Example 145], the activity at 0.1 µg/mL is no less than 200%.

As to `OCCOc1ccc(-c2cnc3ccc(Cl)cn23)cc1` [Example 116], the activity at 0.1 µg/mL was no less than 200%. `O=C(c1ccc(-c2ccn3c(N4CCC(OCCO)CC4)cnc3c2)cc1)N1CCOCC1` [Example 103]: the activity at 0.1 µg/mL was no less than 200%. The result for `Fc1ccc2ncc(-c3ccc(OCCOC[C@H]4COCCO4)cc3)n2c1` [Example 87] reads no less than 200%. The result for `Cn1ccc(-c2ccn3c(-c4ccc(OCCO)cc4)cnc3c2)c1` [Example 67] reads no less than 200%. The same measure for `OCCOc1ccc(-n2cnc3cc(-c4cccnc4)ccc32)cc1` [Example 42]: no less than 200%; for `COc1ccn2ncc(-c3ccc(OCCO)cc3)c2c1` [Example 120]: no less than 200%. On to `OCCOc1ccc(-n2cnc3cc(-c4cn[nH]c4)ccc32)cc1` [Example 54], for which the activity at 0.1 µg/mL was no less than 200%.

For the molecule `c1ccn2ncc(-c3ccc(NCCOC4CCOCC4)cc3)c2c1` [Example 143], the activity at 0.1 µg/mL was no less than 200%. The same measure for `COc1ccn2ncc(-c3ccc(NCCO)cc3)c2c1` [Example 121]: no less than 200%. The result for `c1cn(-c2ccc3ncc(-c4ccc(OCCOC5CCOCC5)cc4)n3c2)cn1` [Example 112] reads no less than 200%; that for `OCCOCCNc1ccc(-n2cnc3ccccc32)cc1` [Example 3, 2-(2-{[4-(1H-Benzimidazol-1-yl)phenyl]amino}ethoxy)ethanol], no less than 200%.

For the molecule `OCCNc1ccc(-n2cnc3cc(Cl)c(Cl)cc32)cc1` [Example 26], the activity at 0.1 µg/mL is no less than 200%. The same measure for `Clc1ccn2c(N3CCC(OCCOC4CCOCC4)CC3)cnc2c1` [Example 139]: no less than 200%; for `OCCNc1ccc(-c2cnn3ccccc23)cc1` [Example 122]: no less than 200%; for `Fc1ccc2ncc(-c3ccc(NCCOC4CCOCC4)cc3)n2c1` [Example 111]: no less than 200%. The result for `OCCOc1ccc(-n2cnc3cc(-c4cc[nH]c4)ccc32)cc1` [Example 57] reads no less than 200%; that for `OCCNc1ccc(-c2cnc3ccc(Cl)cn23)cc1` [Example 118], no less than 200%. Regarding `c1ccn2c(-c3ccc(OCCOC4CCOCC4)cc3)cnc2c1` [Example 98], the activity at 0.1 µg/mL was no less than 200%. In the case of `COc1ccc2c(c1)ncn2-c1ccc(NCCO)cc1` [Example 5, 2-{[4-(5-Methoxy-1H-benzimidazol-1-yl)phenyl]amino}ethanol hydrochloride], the activity at 0.1 µg/mL is no less than 200%.

As to `COC1COCC1OCCOc1ccc(-c2cnc3ccc(F)cn23)cc1` (stereo not drawn) [Example 84], the activity at 0.1 µg/mL is no less than 200%. Consider `OCCNc1ccc(-n2cnc3ccc(Cl)cc32)cc1` [Example 4, 2-{[4-(6-Chloro-1H-benzimidazol-1-yl)phenyl]amino}ethanol hydrochloride], for which the activity at 0.1 µg/mL is no less than 200%. The result for `OCCOc1ccc(-n2cnc3ccc(F)cc32)cc1` [Example 47] reads no less than 200%. As for `N#Cc1ccc2ncn(-c3ccc(OCCOC[C@H]4COCCO4)cc3)c2c1` [Example 92], the activity at 0.1 µg/mL is no less than 200%. As to `COCCOCCOc1ccc(-c2cnc3ccc(F)cn23)cc1` [Example 81], the activity at 0.1 µg/mL was no less than 200%. The result for `O=C(C1CC1)N1CCC(OCCNc2ccc(-c3cnc4ccccn34)cc2)CC1` [Example 137] reads no less than 200%; that for `CS(=O)(=O)N1CCC(OCCOc2ccc(-n3cnc4ccccc43)cc2)CC1` [Example 45], no less than 200%.

In the case of `O=C(O)c1ccc(OCCOc2ccc(-n3cnc4ccccc43)cc2)cc1` [Example 12, 4-{2-[4-(1H-Benzimidazol-1-yl)phenoxy]ethoxy}benzoic acid hydrochloride], the activity at 0.1 µg/mL was no less than 200%. The same measure for `NS(=O)(=O)c1ccc(-c2ccc3c(c2)ncn3-c2ccc(OCCO)cc2)cc1` [Example 52]: no less than 200%; for `OCCOc1ccc(-n2cnc3cc(-c4cncnc4)ccc32)cc1` [Example 38]: no less than 200%. The result for `CC(C)(C)OC(=O)NCCOc1ccc(-n2cnc3ccccc32)cc1` [Example 99] reads no less than 200%; that for `c1ccn2c(-c3ccc(NCCOC4CCOCC4)cc3)cnc2c1` [Example 109], no less than 200%; that for `COc1ccc2ncc(-c3ccc(OCCO)cc3)n2c1` [Example 124], no less than 200%. The result for `OCCOc1ccc(-n2cnc3cc4c(cc32)OCCO4)cc1` [Example 35] reads no less than 200%; that for `c1cc(-n2cnc3cc4c(cc32)OCCO4)ccc1OCCOC1CCOCC1` [Example 49], no less than 200%; that for `N#Cc1ccc2ncn(-c3ccc(OCCOC4CCOCC4)cc3)c2c1` [Example 24, 1-{4-[2-(Tetrahydro-2H-pyran-4-yloxy)ethoxy]phenyl}-1H-benzimidazole-6-carbonitrile hydrochloride], no less than 200%. As for `COc1ccc2c(-c3ccc(OCCO)cc3)cnn2c1` [Example 125], the activity at 0.1 µg/mL was no less than 200%. The result for `CC(=O)N1CC=C(c2ccn3c(-c4ccc(OCCO)cc4)cnc3c2)CC1` [Example 66] reads no less than 200%; that for `N#Cc1ccc2ncc(-c3ccc(OCCOC4COCC4O)cc3)n2c1` (stereo not drawn) [Example 91], no less than 200%; that for `Cn1cc(-c2ccn3c(N4CCC(OCCO)CC4)cnc3c2)cn1` [Example 105], no less than 200%. The same measure for `FC(F)Oc1ccc2ncn(-c3ccc(OCCOC4CCOCC4)cc3)c2c1` [Example 25, 6-(Difluoromethoxy)-1-{4-[2-(tetrahydro-2H-pyran-4-yloxy)ethoxy]phenyl}-1H-benzimidazole hydrochloride]: no less than 200%; for `OCCOc1ccc(-c2cnn3ccccc23)cc1` [Example 117]: no less than 200%.

In the case of `OC1COCC1OCCOc1ccc(-n2cnc3ccc(OC(F)F)cc32)cc1` (stereo not drawn) [Example 96], the activity at 0.1 µg/mL is no less than 200%.

Consider `OCCOc1ccc(-c2cnc3ccc(F)cn23)cc1` [Example 7, 2-[4-(6-Fluoroimidazo[1,2-a]pyridin-3-yl)phenoxy]ethanol], for which the activity at 0.1 µg/mL is no less than 200%.

`CN(C)C(=O)c1cccc(-c2ccn3c(-c4ccc(OCCO)cc4)cnc3c2)c1` [Example 106]: the activity at 0.1 µg/mL is no less than 200%. The same measure for `Clc1ccn2c(-c3ccc(OCCOC4CCOCC4)cc3)cnc2c1` [Example 78]: no less than 200%; for `CC(=O)N1CC=C(c2ccn3c(N4CCC(OCCOC5CCOCC5)CC4)cnc3c2)CC1` [Example 77]: no less than 200%.

`O=C(C1CC1)N1CCC(OCCOC2CCN(c3cnc4ccc(-c5ccncc5)cn34)CC2)CC1` [Example 140]: the activity at 0.1 µg/mL was no less than 200%.

On to `c1ccn2c(N3CCC(OCCOC4CCOCC4)CC3)cnc2c1` [Example 79], for which the activity at 0.1 µg/mL was no less than 200%.

Consider `Fc1ccc2ncc(-c3ccc(OCCOCCOC4CCOCC4)cc3)n2c1` [Example 82], for which the activity at 0.1 µg/mL was no less than 200%. The same measure for `Cc1cc(-c2ccc3c(c2)ncn3-c2ccc(OCCO)cc2)ccn1` [Example 43]: no less than 200%; for `OCCOc1ccc(-c2cnc3cc(N4CCOCC4)ccn23)cc1` [Example 70]: no less than 200%. Regarding `OCCOc1ccc(-n2cnc3cc(-c4nccs4)ccc32)cc1` [Example 64], the activity at 0.1 µg/mL was no less than 200%. The same measure for `Clc1ccc2ncc(-c3ccc(NCCOC4CCOCC4)cc3)n2c1` [Example 135]: no less than 200%; for `NC(=O)c1ccc(-c2ccc3c(c2)ncn3-c2ccc(OCCO)cc2)cc1` [Example 15, 4-{1-[4-(2-Hydroxyethoxy)phenyl]-1H-benzimidazol-5-yl}benzamide dihydrochloride]: no less than 200%. Regarding `COc1ccc2ncc(-c3ccc(OCCOC4CCOCC4)cc3)n2c1` [Example 20, 6-Methoxy-3-{4-[2-(tetrahydro-2H-pyran-4-yloxy)ethoxy]phenyl}imidazo[1,2-a]pyridine], the activity at 0.1 µg/mL was no less than 200%. The same measure for `OCCOc1ccc(-n2cnc3cc(-c4ccncc4)ccc32)cc1` [Example 9, 2-[4-(5-Pyridin-4-yl-1H-benzimidazol-1-yl)phenoxy]ethanol]: no less than 200%.

The record behind these values is patent publication US20130029964A1, “[5, 6] HETEROCYCLIC COMPOUND” (DAIICHI SANKYO COMPANY, LIMITED, priority 2010, published 2013).
